From patent publication US20130252930A1 (BIOMARIN PHARMACEUTICAL INC., priority 2010, published 2013)
Where two headings read alike, the source gives them in different places.

Tests used:
Format in all cases: biochemical
[1] = biological target: T1, CYP17 (human testicular microsome) (Homo sapiens, UniProt P05093); test: CYP17 enzymatic assay (% inhibition at 1 nM) (Biological Example 12)
T1 construct: using microsomal fraction from human testis (Celsis Cat #S00110) as the enzyme source; tissue Celsis S00110; host or cells: human testis microsomal fraction
T1 sequence (P05093 1-508): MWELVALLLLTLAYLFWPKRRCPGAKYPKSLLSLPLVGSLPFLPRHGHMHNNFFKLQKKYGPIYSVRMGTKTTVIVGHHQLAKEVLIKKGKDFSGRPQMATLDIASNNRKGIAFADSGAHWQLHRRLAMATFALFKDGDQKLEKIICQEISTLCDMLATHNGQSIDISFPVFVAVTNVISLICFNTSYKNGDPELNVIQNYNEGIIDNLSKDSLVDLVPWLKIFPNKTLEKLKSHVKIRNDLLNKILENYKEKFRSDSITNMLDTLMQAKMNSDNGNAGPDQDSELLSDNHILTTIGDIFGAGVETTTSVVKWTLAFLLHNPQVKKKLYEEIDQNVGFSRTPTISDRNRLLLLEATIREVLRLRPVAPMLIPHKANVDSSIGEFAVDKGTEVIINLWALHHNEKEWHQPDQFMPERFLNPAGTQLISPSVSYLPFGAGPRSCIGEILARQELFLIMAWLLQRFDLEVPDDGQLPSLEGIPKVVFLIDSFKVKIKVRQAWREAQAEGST

[2] = biological target: T1, CYP17 (human testicular microsome); test: CYP17 enzymatic assay (IC50) (Biological Example 4); conditions: human testicular microsome
Method: The assays were performed in 96-well plates. Typical assays were carried out in total 100 μL volume that included test compounds at designated concentrations, 1× reaction buffer, 0.5 mM NADPH, 1 μM 17α-hydroxypregnenolone, and 2.5 μL of diluted human testicular microsome (Celsis. Cat #S00110). Reaction without test compound served as positive control. Reactions were allowed to incubate at 37° C. for 90 minutes with gentle shaking. The reaction was stopped by directly applying the enzymatic reaction mixture to ELISA plate for evaluation of DHEA concentration according to manufacturer's protocol (IBL America). A standard curve (OD450 vs. DHEA concentration) was generated using purified DHEA.

[3] = biological target: T1, CYP17 (human testicular microsome); test: CYP17 enzymatic assay (% inhibition at 10 nM), version 1 (Biological Example 5); conditions: 10 nM compound, DHEA by ELISA, read-out: Biological Example No. 5: CYP17 percent inhibition at 10 nM (version 1)
[4] = compound at 1 nM, read-out: Biological Example No. 12: CYP17 enzymatic assay % inhibition at 1 nM
[5] = read-out: Biological Example No. 4: CYP17 enzymatic assay IC50
[6] = compound at 1 nM, read-out: CYP17 enzymatic assay % inhibition at 1 nM (Biological Example No. 12)
[7] = read-out: CYP17 enzymatic assay IC50 (Biological Example No. 4)
[8] = test compound at 1 nM, read-out: CYP17 enzymatic assay percent inhibition at 1 nM (Biological Example No. 12)

`CC1=C2CC[C@@H]3[C@H](CC[C@]4(C)C(c5cccnc5)=CC[C@@H]34)[C@@]2(C)CCC1O` (mixture of isomers) [Compound 302, (10R,13S)-4,10,13-trimethyl-17-(pyridin-3-yl)-2,3,6,7,8,9,10,11,12,13,14,15-dodecahydro-1H-cyclopenta[a]phenanthren-3-ol] gave an inhibition at 0.001 µM [1, 4] of 10 to 50% and an IC50 [2, 5] of under 11 nM.
In the case of `Cc1cncc(C2=CC[C@H]3[C@@H]4CCN5CCCCC[C@]5(C)[C@H]4CC[C@]23C)c1` [Compound 45, (11aR,13aS)-11a,13a-dimethyl-1-(5-methylpyridin-3-yl)-3a,3b,4,5,7,8,9,10,11,11a,11b,12,13,13a-tetradecahydro-3H-azepino[2,1-a]cyclopenta[f]isoquinoline], the inhibition at 0.01 µM [3] is reported as 1 to 50%.
Work on `COc1cncc(C2=CC[C@H]3[C@@H]4CCN5CCCCC[C@]5(C)[C@H]4CC[C@]23C)c1` [Compound 47, (11aR,13aS)-1-(5-methoxypyridin-3-yl)-11a,13a-dimethyl-3a,3b,4,5,7,8,9,10,11,11a,11b,12,13,13a-tetradecahydro-3H-azepino[2,1-a]cyclopenta[f]isoquinoline] yielded an inhibition at 0.01 µM [3] of 1 to 50%.
`CC(=O)O[C@H]1CC[C@@]2(C)C(=CC[C@H]3C4=CC=C(n5ccnc5)[C@@]4(C)CC[C@@H]32)C1` [Compound 73, (3S,10R,13S)-17-(1H-imidazol-1-yl)-10,13-dimethyl-2,3,4,7,8,9,10,11,12,13-decahydro-1H-cyclopenta[a]phenanthren-3-yl acetate] was tested, and the IC50 ([2]; DHEA by ELISA, read-out: Biological Example No. 4: CYP17 enzymatic assay IC50) was under 11 nM.
`C[C@]12CC[C@@H](NC(=O)C3CCC3)CC1=CCC1C2CC[C@]2(C)C(c3cccnc3)=CCC12` (stereo partly drawn) [Compound 226, N-((3R,10R,13S)-10,13-dimethyl-17-(pyridin-3-yl)-2,3,4,7,8,9,10,11,12,13,14,15-dodecahydro-1H-cyclopenta[a]phenanthren-3-yl)cyclobutanecarboxamide] gave an inhibition at 0.001 µM [1, 6] of over 50% and an IC50 [2, 7] of under 11 nM.
Work on `Cc1cncc(C2=CC[C@H]3[C@@H]4CC=C5C[C@H](NC(=O)C6CC6)CC[C@]5(C)[C@H]4CC[C@]23C)c1` [Compound 227, N-((3R,10R,13S)-10,13-dimethyl-17-(5-methylpyridin-3-yl)-2,3,4,7,8,9,10,11,12,13,14,15-dodecahydro-1H-cyclopenta[a]phenanthren-3-yl)cyclopropanecarboxamide] yielded an inhibition at 0.001 µM [1, 6] of over 50% and an IC50 [2, 7] of under 11 nM.
For `CC1=C2CCC3C4=CC=C(c5cccnc5)[C@@]4(C)CCC3[C@@]2(C)CCC1O` (stereo partly drawn) [Compound 299, (10R,13S)-4,10,13-trimethyl-17-(pyridin-3-yl)-2,3,6,7,8,9,10,11,12,13-decahydro-1H-cyclopenta[a]phenanthren-3-ol], the inhibition at 0.001 µM [1, 6] was under 10% and the IC50 [2, 7] was under 11 nM.
`C[C@]12CC[C@H]3[C@@H](CC(F)C4(O)CC(=O)CC[C@]34C)[C@@H]1CC=C2c1cccnc1` (stereo partly drawn) [Compound 310e, (10R,13S)-6-fluoro-5-hydroxy-10,13-dimethyl-17-(pyridin-3-yl)-4,5,6,7,8,9,10,11,12,13,14,15-dodecahydro-1H-cyclopenta[a]phenanthren-3(2H)-one] was tested, and the inhibition at 0.001 µM [1, 4] was over 50% and the IC50 [2, 5] was under 11 nM.
`C[C@]12CC[C@H]3[C@@H](CC(F)C4(O)CC(=O)CC[C@]34C)[C@@H]1CC=C2c1cncc(F)c1` (stereo partly drawn) [Compound 324, (10R,13S)-6-fluoro-17-(5-fluoropyridin-3-yl)-5-hydroxy-10,13-dimethyl-4,5,6,7,8,9,10,11,12,13,14,15-dodecahydro-1H-cyclopenta[a]phenanthren-3(2H)-one] showed an inhibition at 0.001 µM [1, 4] of over 50% and an IC50 [2, 5] of under 11 nM.
`C[C@]12CCC3C(CCC4CC(F)(F)CC[C@@]43C)C1=CC=C2c1cncc(F)c1` (stereo partly drawn) [Compound 402, 3-((10S,13S)-3,3-difluoro-10,13-dimethyl-2,3,4,5,6,7,8,9,10,11,12,13-dodecahydro-1H-cyclopenta[a]phenanthren-17-yl)-5-fluoropyridine] showed an IC50 [2, 5] of over 25 nM.
For `C[C@]12CCC3C(CCC4CC(F)(F)CC[C@@]43C)C1=CC=C2c1cccnc1` (stereo partly drawn) [Compound 403, 3-((10S,13S)-3,3-difluoro-10,13-dimethyl-2,3,4,5,6,7,8,9,10,11,12,13-dodecahydro-1H-cyclopenta[a]phenanthren-17-yl)pyridine], the IC50 [2, 5] was under 11 nM.
`C[C@]12CCC(F)(F)CC1CCC1C2CC[C@]2(C)C(c3cccnc3)=CCC12` (stereo partly drawn) [Compound 404, 3-((10S,13S)-3,3-difluoro-10,13-dimethyl-2,3,4,5,6,7,8,9,10,11,12,13,14,15-tetradecahydro-1H-cyclopenta[a]phenanthren-17-yl)pyridine] was tested, and the IC50 [2, 5] was under 11 nM.
In the case of `C[C@]12CCC(F)(F)CC1CCC1C2CC[C@]2(C)C(c3cncc(F)c3)=CCC12` (stereo partly drawn) [Compound 405, 3-((10S,13S)-3,3-difluoro-10,13-dimethyl-2,3,4,5,6,7,8,9,10,11,12,13,14,15-tetradecahydro-1H-cyclopenta[a]phenanthren-17-yl)-5-fluoropyridine], the IC50 [2, 7] is reported as over 25 nM.
Work on `C[C@]12CCC(F)(F)CC1CCC1C2CC[C@]2(C)C(n3ccnc3)=CCC12` (stereo partly drawn) [Compound 406, 1-((10S,13S)-3,3-difluoro-10,13-dimethyl-2,3,4,5,6,7,8,9,10,11,12,13,14,15-tetradecahydro-1H-cyclopenta[a]phenanthren-17-yl)-1H-imidazole] yielded an IC50 [2, 7] of under 11 nM.
Molecule `CC1CC2C3CC=C(c4cccnc4)[C@@]3(C)CCC2[C@@]2(C)CC[C@H](O)CC12O` (stereo partly drawn) [Compound 410, (3S,10R,13S)-6,10,13-trimethyl-17-(pyridin-3-yl)-2,3,4,5,6,7,8,9,10,11,12,13,14,15-tetradecahydro-1H-cyclopenta[a]phenanthrene-3,5-diol] has an inhibition at 0.001 µM [1, 4] of over 50% and an IC50 [2, 5] of under 11 nM.
With `Cc1cncc(C2=CC=C3[C@@H]4CCC5CC(=O)NCC[C@]5(C)[C@H]4CC[C@]23C)c1` (stereo partly drawn) [Compound 460, (5aS,5bS,7aS,10bR)-5a,7a-dimethyl-8-(5-methylpyridin-3-yl)-3,4,5,5a,5b,6,7,7a,10b,11,12,12a-dodecahydrocyclopenta[5,6]naphtho[1,2-d]azepin-2(1H)-one] the inhibition at 0.001 µM [1, 6] was over 50% and the IC50 [2, 7] was under 11 nM.
For `C[C@]12CCNC(=O)CC1CCC1C2CC[C@]2(C)C(c3cncc(F)c3)=CCC12` (stereo partly drawn) [Compound 481, (5aS,7aS)-8-(5-fluoropyridin-3-yl)-5a,7a-dimethyl-4,5,5a,5b,6,7,7a,10,10a,10b,11,12,12a-tetradecahydrocyclopenta[5,6]naphtho[1,2-d]azepin-2(1H)-one], the “Biological Example No. 12: CYP17 enzymatic assay % inhibition at 1 nM” value ([1]; compound at 1 nM) was “N (N means the compound had a percent inhibition of greater than or equal to 10% but less than 50%)”.
`C[C@]12CCNC(=O)CC1CCC1C2CC[C@]2(C)C(c3cncc(C(F)F)c3)=CCC12` (stereo partly drawn) [Compound 483, (5aS,7aS)-8-(5-(difluoromethyl)pyridin-3-yl)-5a,7a-dimethyl-3,4,5,5a,5b,6,7,7a,10,10a,10b,11,12,12a-tetradecahydrocyclopenta[5,6]naphtho[1,2-d]azepin-2(1H)-one] was tested, and the inhibition at 0.001 µM [1, 4] was over 50%.
Work on `Cc1ccncc1C1=CC[C@H]2[C@@H]3CC[C@H]4CNC(=O)CC[C@]4(C)[C@H]3CC[C@]12C` [Compound 484, (5aR,5bS,7aS,10aS,10bR,12aR)-5a,7a-dimethyl-8-(4-methylpyridin-3-yl)-1,2,5,5a,5b,6,7,7a,10,10a,10b,11,12,12a-tetradecahydrocyclopenta[5,6]naphtho[2,1-c]azepin-3(4H)-one] yielded an inhibition at 0.001 µM [1, 8] of 10 to 50%.
For `Cc1ccncc1C1=CC=C2C3CCC4C[C@@H](O)CC[C@]4(C)C3CC[C@]12C` (stereo partly drawn) [Compound 485, (3S,10S,13S)-10,13-dimethyl-17-(4-methylpyridin-3-yl)-2,3,4,5,6,7,8,9,10,11,12,13-dodecahydro-1H-cyclopenta[a]phenanthren-3-ol], the inhibition at 0.001 µM [1, 8] was 10 to 50%.
In the case of `Cc1ccncc1C1=CC=C2C3CCC4CC(=O)CC[C@]4(C)C3CC[C@]12C` (stereo partly drawn) [Compound 486, (10S,13S)-10,13-dimethyl-17-(4-methylpyridin-3-yl)-4,5,6,7,8,9,10,11,12,13-decahydro-1H-cyclopenta[a]phenanthren-3(2H)-one], the inhibition at 0.001 µM [1, 8] is reported as 10 to 50%.
For `CCc1ccncc1C1=CC=C2C3CCC4C[C@@H](OC(C)=O)CC[C@]4(C)C3CC[C@]12C` (stereo partly drawn) [Compound 487, (3S,10S,13S)-17-(4-ethylpyridin-3-yl)-10,13-dimethyl-2,3,4,5,6,7,8,9,10,11,12,13-dodecahydro-1H-cyclopenta[a]phenanthren-3-yl acetate], the inhibition at 0.001 µM [1, 8] was 10 to 50%.
In the case of `CCc1ccncc1C1=CC=C2C3CCC4CC(=O)CC[C@]4(C)C3CC[C@]12C` (stereo partly drawn) [Compound 488, (10S,13S)-17-(4-ethylpyridin-3-yl)-10,13-dimethyl-4,5,6,7,8,9,10,11,12,13-decahydro-1H-cyclopenta[a]phenanthren-3(2H)-one], the inhibition at 0.001 µM [1, 8] is reported as 10 to 50%.
